{"source": "patent US10669266B2", "about": "“Oxadiazole inhibitors of HIPK2 for treating kidney fibrosis” (ICAHN SCHOOL OF MEDICINE AT MOUNT SINAI, priority 2017, dated 2020)", "data": [{"system": "Smad3-responsive luciferase reporter (SBE4-Luc)", "procedure": "Human primary tubular cells (PromoCell GmbH, Heidelberg, Germany) were cultured in Renal Epithelial Cell Growth Medium-2 (Promocell GmbH) with supplements according to manufacturer's protocol human primary renal tubular epithelial cells with <5 passages were used for all studies. For HIV infection of hRTECs, pNL4-3:ΔG/P-EGFP, a gag/poi-deleted HIV-1 construct that contains EGFP in the gag open reading frame, and pHR-IRES-EGFP, a control EGFP construct, were used to generate the VSV-G pseudotyped virus. Cells were infected with HIV pseudotyped virus or control virus for 2 days before the treatment with test compound.\nRenilla luciferase reporter plasmid (pRL) was purchased from Promega.\nForty-eight hours post-transfection cells were treated with assigned concentrations of test compound together with or without 10 ng/ml TGF-β1 for 16 hours. Luciferase activities were measured using the Dual-Luciferase Reporter Assay kit (Promega, #E1910). Data are expressed as the ratio of firefly luciferase activity over Renilla luciferase activity. […] 48 hours after transfection, luciferase activities were measured.", "values": [{"smiles": "CC1(C)OB(c2ccc3cc(-c4nc(-c5ccc(C(=O)O)cc5)no4)cnc3c2)OC1(C)C", "note": "[Example 6, 4-(5-(7-(4,4,5,5-tetramethyl-1,3,2-dioxaborolan-2-yl)quinolin-3-yl)-1,2,4-oxadiazol-3-yl)benzoic acid]", "Luciferase Activity (Relative to DMSO control) −TGFβ": 0.722}, {"smiles": "COc1ccc2cc(-c3nc(-c4cccc(Br)n4)no3)cnc2c1", "note": "[Example 7]", "Luciferase Activity (Relative to DMSO control) −TGFβ": 0.784}, {"smiles": "CCOC(=O)c1ccc(-c2noc(-c3cnc4cc(B5OC(C)(C)C(C)(C)O5)ccc4c3)n2)cc1", "note": "[Example 8, ethyl 4-(5-(7-(4,4,5,5-tetramethyl-1,3,2-dioxaborolan-2-yl)quinolin-3-yl)-1,2,4-oxadiazol-3-yl)benzoate]", "Luciferase Activity (Relative to DMSO control) −TGFβ": 0.818}, {"smiles": "COc1ccc2cc(-c3nc(-c4ccc([B-](F)(F)F)cc4)no3)cnc2c1", "note": "[Example 4]", "Luciferase Activity (Relative to DMSO control) −TGFβ": 0.366}, {"smiles": "COc1ccc2cc(-c3nc(-c4ccc(B5OC(C)(C)C(C)(C)O5)cc4)no3)cnc2c1", "note": "[Example 3, 5-(7-methoxyquinolin-3-yl)-3-(4-(4,4,5,5-tetramethyl-1,3,2-dioxaborolan-2-yl)phenyl)-1,2,4-oxadiazole]", "Luciferase Activity (Relative to DMSO control) −TGFβ": 0.730}, {"smiles": "CCOC(=O)c1ccc(-c2noc(-c3cnc4cc(Cl)ccc4c3)n2)cc1", "note": "[Example 2]", "Luciferase Activity (Relative to DMSO control) −TGFβ": 0.660}, {"smiles": "CCOC(=O)c1ccc(-c2noc(-c3cnc4cc(Br)ccc4c3)n2)cc1", "note": "[Example 5, ethyl 4-(5-(7-bromoquinolin-3-yl)-1,2,4-oxadiazol-3-yl)benzoate]", "Luciferase Activity (Relative to DMSO control) −TGFβ": 0.512}]}]}
